The values that follow come from patent US20090074885A1, “Reversible Hydrophobic Modification of Drugs for Improved Delivery to Cells” (Roche Madison Inc., priority 2003, published 2009).

Data set [1] relates to rapidly dividing hepatocytes. In words: Mitosis of hepatocytes after 70% partial hepatectomy and portal vein delivery. It counts as in vivo, ICR mice. The settings on record: 2 days after treatment, 0.150 μmol intraportal. The protocol: Delivery of RRH-PI to rapidly dividing cells results in a decrease in the number of cells in mitosis. […] Following the hepatectomy, PI or III (0.150 μmol, 220 μl total injection volume) were delivered to the liver via the portal vein using the mixing chamber. The abdominal cavity was closed in two layers with 4-0 Braunamid suture. After 48 h, the animals were sacrificed, the livers were harvested, formalin fixed, paraffin imbedded, sectioned, and H&E stained. […] Results are reported as the percentage of cells in metaphase (±standard deviation).

The nature of data set [2]: Analysis of prodrug lability (rate of hydrolysis) of PI derivatives by fluorescent spectroscopy. It is filed as physicochemical. The note with it: for Half-life: extrapolated to pure buffer (100 mol % H2O). As to the method: Analysis of prodrug lability. The prodrugs were tested for their rate of hydrolysis at pH 6.0, 7.2 and 8.5 using fluorescent spectroscopy. Lability studies for C12CON-PI and RRH-PI (rapidly reversible hydrophobic-PI) derivatives were conducted on a Cary Eclipse Fluorescence Spectrophotometer (Varian Inc.).
To solutions of PI and RRH-prodrugs of PI (7.48 μM in DMSO) were added various amounts of buffer (25 μL, 50 μL, and 100 μL of 20 mM Hepes buffer) at different pH. Upon cleavage of the hydrophobic modification and regeneration of PI, the fluorescence of the solution increased (λex=493 nm, λem=647 nm, excitation and emission slit width=5 nm, and emission PMT=600V) and was assayed as a function of time (20 min).
The resulting curves were normalized for intensity and fit to an exponential equation (Origin) to determine kdetermined for each solution. The kdetermined for each compound at appropriate pH were plotted against the mol % of H2O, and the best fit line was solved for kbuffer for 100 mol % H2O. These derived kbuffer values were used to determine the half-life of the prodrug in pure buffer according to the equation t1/2=1n2/k.

The nature of data set [3]: Qualitative 90° light scattering for particles. It counts as physicochemical. The note with it: relative to ITG or PI in ITG. The protocol: Light Scattering analysis of prodrugs. Particle size was determined by dynamic light scattering on a Zeta Plus (Zeta Potential Analyzer, Brookhaven Instrument Corporation, λ 533 nm, 90°), and results are reported as the size of the most abundant particle (range of particle sizes, counts sec^−1). Fluorescent compounds were also analyzed for particles qualitatively, by measuring for light scattering on a Cary Eclipse Fluorescence Spectrophotometer (Varian Inc.), with λex=λem (300-800 nm, 90° detection). The presence of particles in solution results in an increase in signal detection at 90°. PI and RRH-PI prodrugs were 7.48 mM in DMSO. Melphalan and V were 50 mM in DMSO. The drug/prodrug solutions were mixed and diluted with ITG through the mixing chamber (40 μl OS and 400 μl ITG), and analyzed immediately.

The test system of data set [4] is hepatocytes. Briefly: Uptake by hepatocytes in vivo after intraportal injection (occluded blood flow). Further details: species or system mouse. The note with it: normal liver, portal vein injection; for cells (hepatocytes) PI positive: 0.300 μmol. The protocol: Uptake of BDMODS-PI by hepatocytes in vivo. Intraportal injections were conducted in order to target hepatocytes. For the injections, both the portal vein and the celiac artery were clamped to occlude blood flow into the liver. The vena cava was not clamped in order to avoid increased pressure within the liver during the injection procedure. The blood in the liver was flushed out with 1 ml of ITG delivered through the portal vein (1 min). 0.300 μmol PI or II in 40 μl of DMF was then delivered together with 400 μl ITG via the mixing chamber. 5 min after injection the livers were perfused with 3 ml of ITG to flush any drug remaining in the vasculature, and livers were sectioned as above or the hepatocytes were isolated. Slides were prepared from the resulting hepatocyte isolations for examination by fluorescent microscopy (Axioplan2 fluorescent microscope in the fluorescein fluorescent channel (λex=BP 546/90, λem=LP 515 nm filter set) due to signal intensity, magnification=400×, Zeiss) by placing a drop of the cell suspension (about 20 μl) on a clean glass slide and preparing a cell smear. Random fields were examined, and the number of positive cells was counted out of a total of 200 cells in order to determine the percentage of PI positive cells in the sample.
The amount of PI retained in hepatocytes was also quantitated following intraportal injections of PI and II. The isolated hepatocyte cell suspensions were dissolved in 0.5% octyl glycoside in 10 mM HEPES buffer, pH 7.5. Nucleic acid was then isolated from cell suspensions (0.5 ml) using phenol extraction. PI fluorescence spectra were monitored (Shimadzu RF 1501 Spectrophotometer) using an excitation wavelength of 530 nm and an emission wavelength of 617 nm. All spectra were background subtracted using the fluorescence of cell suspensions from untreated animals. PI calibration curves were generated by mixing increasing amounts of PI in each of the samples. […] The amount of PI uptake was then calculated according to the equation: Amt(%)=100×PIs/PIi, where PIs is the amount of PI in the cell suspension and PIi is the amount of PI or BDMOD-PI injected (corrected for the sample size relative to the total liver).

Data set [5] concerns MC38 metastases and hepatic cells. In words: Portal vein injection in tumor-bearing mice. It counts as in vivo, mouse. The protocol: For intraportal injections both the portal vein and the celiac artery were clamped to occlude blood flow into the liver. In other experiments, the portal vein and the celiac artery were not clamped, preserving full portal blood flow during the experiment. In all cases, the vena cava was not clamped in order to avoid increased pressure within the liver during the injection procedure. For experiments with occluded blood flow, the blood in the liver was flushed out with 1 ml of ITG delivered through the portal vein (1 min). Then 0.300 μmol of PI or II in 40 μl of DMF was delivered together with 400 μl of ITG via the mixing chamber. Five min after injection the livers were perfused with 3 ml of ITG to flush any drug remaining in the vasculature, and livers were sectioned as above or the hepatocytes were isolated.

[6] abbreviates: portal vein and celiac artery clamped (occluded blood flow).

Regarding `CCCCCCCCCCCCNC(=O)CCC(=CCC(=O)O)C(=O)Nc1ccc2c(c1)c(-c1ccccc1)[n+](CCC[N+](C)(CC)CC)c1cc(NC(=O)C(=CCC(=O)O)CCC(=O)NCCCCCCCCCCCC)ccc21.[I-].[I-]` [III, 3,8-bis-[2-(2 carboxyethylidene)-4-(dodecarbamoyl)-1-oxo-butylamine] 5-(3,3-diethyl-3-methylammoniumpropyl) 6-phenyl phenanthridinium diiodide], the hepatocytes in metaphase in data set [1] was 2.3%. Further, the k result in data set [2] (pH 7.2) is “(5.05 min^−1)”; in data set [2] (pH 8.5), “(1.97 min^−1)”. The “increase in 90° light scattering signal intensity” value in data set [3] is given as “maximum two fold increase”.

In the case of `CCCCCCCCCCCCCCCCCC[Si](C)(C)Nc1ccc2c(c1)c(-c1ccccc1)[n+](CCC[N+](C)(CC)CC)c1cc(N[Si](C)(C)CCCCCCCCCCCCCCCCCC)ccc21.[I-].[I-]` [II, 3,8-bis[((dimethyl)octadecylsilazyl)amine] 5-(3,3-diethyl-3-methylammoniumpropyl) 6-phenyl phenanthridinium diiodide], in data set [4], the “injected PI bound to hepatocyte nucleic acid” value is 14%. In addition, the “cells (hepatocytes) PI positive” value in data set [4] is “approximately 70%”. The “PI labeling after portal vein injection” value is “prominent labeling of portal structures and adjacent cells, including hepatocytes, but not of the metastases” in data set [5] (setting [6]); “all metastases were PI-negative” in data set [5] (preserved portal blood flow); “No labeled cells in MC38 metastases” in data set [5] (preserved portal blood flow, listed as BDMODS-PI). Moreover, the k entry is on record as “(3.96 min^−1)” in data set [2] (pH 7.2) and “(1.80 min^−1)” in data set [2] (pH 8.5). Besides, the Half-life in data set [2] (pH 7.2) was 11 s; in data set [2] (pH 7.2, listed as BDMODS-PI (II)), 10.5 s; in data set [2] (pH 8.5) it was 23 s; in data set [2] (pH 8.5, listed as BDMODS-PI (II)), 23.1 s. In addition, the “increase in 90° light scattering signal intensity” value in data set [3] is “maximum two fold increase”.

Take `CC[N+](C)(CC)CCC[n+]1c(-c2ccccc2)c2cc(N)ccc2c2ccc(N)cc21.[I-].[I-]` [PI, Propidium iodide, reference compound]: in data set [4], the “injected PI bound to hepatocyte nucleic acid” value was determined as 1.2% and the “cells (hepatocytes) PI positive” value is reported as “approximately 1%”. The “nuclear staining after portal vein injection” value in data set [5] (400 μl into portal vein of liver with MC38 metastases) is “did not result in nuclear staining of any structures”. In data set [5] (setting [6]), the “PI labeling after portal vein injection” value was “a few labeled cells”. In data set [1], this compound returned a hepatocytes in metaphase of 7.0%.
